Counter-ions that a name gives are not always drawn. Blank lines part the entries; values can stand above or below the compound they belong to.
Tests used:
MMP-13 [1] = target: T1, MMP-13 (Homo sapiens, UniProt P45452); experiment: In vivo MMP inhibition test procedure (implanted dialysis tubing containing enzyme); design: species or system rat or mouse; conditions: dose 25 mg/kg, p.o. vs MMP-13
MMP-9 = MMP-9 (Homo sapiens, UniProt P14780); experiment: MMP-9 inhibition (thiopeptide or fluorescent peptide substrate); assay type: biochemical; conditions: read-out: MMP-9 IC50
MMP-1 [2] = target: T2, MMP-1 (Homo sapiens, UniProt P03956); experiment: biochemical; conditions: read-out: MMP-1 % inhibition
T2 sequence (P03956 100-469): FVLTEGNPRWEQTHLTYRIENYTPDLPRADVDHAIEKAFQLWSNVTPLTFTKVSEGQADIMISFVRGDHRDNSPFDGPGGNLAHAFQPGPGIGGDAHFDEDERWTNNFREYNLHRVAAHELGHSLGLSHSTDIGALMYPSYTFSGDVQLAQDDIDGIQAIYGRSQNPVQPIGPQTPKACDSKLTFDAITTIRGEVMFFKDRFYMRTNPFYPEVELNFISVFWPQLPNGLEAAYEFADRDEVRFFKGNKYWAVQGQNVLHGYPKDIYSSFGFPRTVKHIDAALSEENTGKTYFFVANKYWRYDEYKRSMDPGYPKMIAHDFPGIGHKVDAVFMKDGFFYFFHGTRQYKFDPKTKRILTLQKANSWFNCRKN

TACE = TACE (Homo sapiens, UniProt P78536); experiment: TACE inhibition (fluorescent peptidyl substrate); assay type: biochemical
MMP-13 [3] = target: T1, MMP-13; experiment: MMP-13 inhibition (thiopeptide or fluorescent peptide substrate); assay type: biochemical
MMP-1 [4] = target: T2, MMP-1; conditions: read-out: MMP-1 IC50

Sequence of TACE (P78536 215-824): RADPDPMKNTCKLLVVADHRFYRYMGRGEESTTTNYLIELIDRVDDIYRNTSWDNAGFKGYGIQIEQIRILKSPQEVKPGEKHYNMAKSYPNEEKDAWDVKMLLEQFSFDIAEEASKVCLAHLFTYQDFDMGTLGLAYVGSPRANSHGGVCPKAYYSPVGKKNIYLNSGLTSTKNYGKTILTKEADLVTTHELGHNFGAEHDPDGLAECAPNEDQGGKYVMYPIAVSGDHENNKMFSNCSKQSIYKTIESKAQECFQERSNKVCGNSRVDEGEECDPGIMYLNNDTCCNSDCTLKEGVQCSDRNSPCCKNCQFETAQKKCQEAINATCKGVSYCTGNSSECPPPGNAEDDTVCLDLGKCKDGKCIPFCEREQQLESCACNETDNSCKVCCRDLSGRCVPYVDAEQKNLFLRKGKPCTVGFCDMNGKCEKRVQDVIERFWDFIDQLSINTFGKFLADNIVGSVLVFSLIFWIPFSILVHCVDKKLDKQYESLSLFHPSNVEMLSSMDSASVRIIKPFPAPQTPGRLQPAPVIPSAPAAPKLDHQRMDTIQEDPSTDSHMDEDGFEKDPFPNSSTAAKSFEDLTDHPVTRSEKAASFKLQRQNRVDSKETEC
Sequence of MMP-9 (P14780 94-707): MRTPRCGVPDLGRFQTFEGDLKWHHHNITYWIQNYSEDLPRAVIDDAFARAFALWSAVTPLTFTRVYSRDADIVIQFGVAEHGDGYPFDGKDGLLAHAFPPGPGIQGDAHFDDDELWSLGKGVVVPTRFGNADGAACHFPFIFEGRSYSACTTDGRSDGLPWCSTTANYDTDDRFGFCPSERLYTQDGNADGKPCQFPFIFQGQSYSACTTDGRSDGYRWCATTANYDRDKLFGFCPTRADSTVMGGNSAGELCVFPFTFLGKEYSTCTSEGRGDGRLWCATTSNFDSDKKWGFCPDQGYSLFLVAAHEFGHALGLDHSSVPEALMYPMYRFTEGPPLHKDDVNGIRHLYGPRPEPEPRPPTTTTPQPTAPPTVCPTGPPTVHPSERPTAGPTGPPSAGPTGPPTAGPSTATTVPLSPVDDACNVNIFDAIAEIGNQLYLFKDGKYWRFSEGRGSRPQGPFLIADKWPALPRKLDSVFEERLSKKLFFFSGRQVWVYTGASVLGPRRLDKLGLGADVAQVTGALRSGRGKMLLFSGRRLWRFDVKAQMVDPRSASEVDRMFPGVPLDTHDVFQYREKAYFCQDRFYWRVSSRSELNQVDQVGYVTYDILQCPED

Compound: Cc1nn(C)c2ncc(C(=O)NO)c(N(C)S(=O)(=O)c3ccc(Oc4ccncc4)cc3)c12 (as salt: hydrochloride) [91(HC1), 4-{Methyl-[4-(4-pyridinyloxy)benzenesulfonyl]amino}-1,3-dimethyl-1H-pyrazolo[3,4-b]pyridine-5-carboxylic Acid, Hydroxyamide]
melting point: 147 °C (dec.)

Compound: CN(c1c(C(=O)NO)cnc2c1c(-c1ccccc1)nn2C)S(=O)(=O)c1ccc(Oc2ccncc2)cc1 (as salt: hydrochloride) [Example 93, 4-{Methyl-[4-(4-pyridinyloxy)benzenesulfonyl]amino}-1-methyl-3-phenyl-1H-pyrazolo[3,4-b]pyridine-5-carboxylic acid, Hydroxyamide]
melting point: 195 °C (dec.)

Compound: Cc1nsc2ncc(C(=O)NO)c(N(C)S(=O)(=O)c3ccc(Oc4ccncc4)cc3)c12 [Example 92, 4-{Methyl-[4-(4-pyridinyloxy)benzenesulfonyl]amino}-3-methylisothiazolo[5,4-b]pyridine-5-carboxylic Acid, Hydroxyamide]
melting point: 146 °C (dec.) | in-vivo MMP % inhibition (MMP-13 [1]): 30% (25) | IC50 (MMP-9): 12 nM | inhibition at 10 µM (MMP-1 [2]): 60.2% | IC50 (TACE): > 1640 nM | IC50 (MMP-13 [3]): 6.1 nM

Compound: Cc1noc2ncc(C(=O)NO)c(N(C)S(=O)(=O)c3ccc(Oc4ccncc4)cc3)c12 (as salt: hydrochloride) [Example 94, 4-{Methyl-[4-(4-pyridinyloxy)benzenesulfonyl]amino}-3-methylisoxazolo[5,4-b]pyridine-5-carboxylic acid, Hydroxyamide,]
melting point: 170 °C (dec.)

Compound: 4-{[4-(4-Chlorophenyloxy)benzenesulfonyl]methylamino}-1,3-dimethyl-1H-pyrazolo[3,4-b]pyridine-5-carboxylic Acid, Hydroxyamide [Example 89]
IC50 (MMP-1 [4]): 116 nM | in-vivo MMP % inhibition (MMP-13 [1]): 6% (25) | IC50 (MMP-9): 0.8 nM | IC50 (TACE): 356 ± 15 nM

Compound: COc1ccc(S(=O)(=O)N(Cc2cccnc2)c2c(C(=O)NO)cnc3snc(C)c23)cc1 (as salt: salt) [Example 86, 4-[(4-Methoxybenzenesulfonyl)pyridin-3-ylmethylamino]-3-methylisothiazolo[5,4-b]pyridine-5-carboxylic Acid, Hydroxyamide]
melting point: 224 °C (dec.)

melting point: 196 to 198 °C
Compound: COc1ccc(S(=O)(=O)N(Cc2cccnc2)c2c(C(=O)NO)cnc3c2c(C)nn3C)cc1 [Example 60, 4-[(4-Methoxybenzenesulfonyl)pyridin-3-ylmethylamino]-1,3-dimethyl-1H-pyrazolo[3,4-b]pyridine-5-carboxylic acid, hydroxyamide]

Compound: 4-[(4-Methoxy-benzenesulfonyl)-pyridin-3-ylmethyl-amino]-8-thiophen-2-yl-quinoline-3-carboxylic acid hydroxyamide [Example 41]
IC50 (MMP-1 [4]): 136 nM

Compound: 4-{Methyl-(4-(pyridin-4-yloxy)-benzenesulfonyl]-amino}-6-iodo-quinoline-3-carboxylic acid hydroxyamide hydrochloride [Example 33]
IC50 (MMP-1 [4]): 1010 nM

Compound: COc1ccc(S(=O)(=O)N(Cc2cccnc2)c2c(C(=O)NO)cnc3onc(C)c23)cc1 (as salt: salt) [Example 87, 4-[(4-Methoxybenzenesulfonyl)pyridin-3-ylmethylamino]-3-methylisoxazolo[5,4-b]pyridine-5-carboxylic Acid, Hydroxyamide]
melting point: 212 to 215 °C

Compound: COc1ccc(S(=O)(=O)N(Cc2cccnc2)c2c(C(=O)NO)cnc3cc(C)nn23)cc1 (as salt: salt) [Example 88, 7-[(4-Methoxybenzenesulfonyl)pyridin-3-ylmethylamino]-2-methylpyrazolo[1,5-a]pyrimidine-6-carboxylic Acid, Hydroxyamide]
melting point: 170 °C (dec.)

Compound: 4-[Methyl-(4-methoxy-benzenesulfonyl)-amino]-6-phenylethyl-quinoline-3-carboxylic acid hydroxyamide [Example 35]
IC50 (MMP-1 [4]): 234 nM | IC50 (TACE): 49 nM

Reference: patent US6534491B2, “Preparation and use of ortho-sulfonamido bicyclic heteroaryl hydroxamic acids as matrix metalloproteinase and tace inhibitors” (priority 1996, dated 2003)
